Measured values reported in patent publication US20060241114A1, “Derivatives of azasugars as anticancer agents” (priority 2003, published 2006).

What was measured:
[1] = test system: MCF7ADR (adriamycin resistant breast adenocarcinoma); test: In vitro growth inhibition screen (sulphorhodamine B), MCF7ADR; assay type: cell-based, human; conditions: MCF7ADR cells, incubated for 48 hours, sulphorhodamine B dye; read-out: GI50 (concentration which inhibits the cell growth by 50%), MCF7ADR Adriamycin Resistant Breast adenocarcinoma
Description: (§1) Each agent was tested over a broad concentration range (ten-fold dilutions starting from ≧100 μM to 10 nM) against 6 human cancer cell lines which was comprised of different tumor types. These are DU145 (prostate carcinoma), HT29 (colorectal adenocarcinoma), LOX (melanoma), MCF7 (breast adenocarcinoma), MCF7ADR (adriamycin resistant breast adenocarcinoma), and U251 (human glioblastoma). A standard compound doxorubicin was tested in each assay as a positive control. The cells were maintained in growing condition in RPMI 1640 medium containing 10% fetal calf serum and incubated at 37° C. under 5% CO2 atmosphere. All cell lines were inoculated onto a series of standard 96-well microtitre plate on day zero, followed by twenty four-hour incubation in the absence of test compound. The inoculation densities in the screen were as per Monk et al., (1991) J. Natl. Cancer Inst., 83, 757-766. All NCEs were dissolved in DMSO and diluted further in culture medium. An aliquot of each dilution was added to the growing cells in 96 well plates and incubated for 48 hours. After incubation, the assay was terminated by adding 50 μL of trichloroacetic acid (TCA) and incubating at 4° C. for 30 min. The precipitated cells were washed and stained with sulphorhodamine B dye for 30 min and the excess dye was washed off with acetic acid. Adsorbed dye was solubilised in Tris base (alkaline pH) and quantitated by measuring the OD at […] in ELISA READER. GI50 (concentration which inhibits the cell growth by 50%) was calculated according to Boyd and Paull, (1995) Drug Dev. Res., 34, 91-109.

[2] = test system: U251 (human glioblastoma); test: In vitro growth inhibition screen (sulphorhodamine B), U251; assay type: cell-based; conditions: U251 cells, incubated for 48 hours, sulphorhodamine B dye; read-out: GI50 (concentration which inhibits the cell growth by 50%), U251 Human glioblastoma astrocytoma
Description: as §1

[3] = test system: DU145 (prostate carcinoma); test: In vitro growth inhibition screen (sulphorhodamine B), DU145; assay type: cell-based, human; conditions: DU145 cells, incubated for 48 hours, sulphorhodamine B dye; read-out: GI50 (concentration which inhibits the cell growth by 50%), DU145 Prostate carcinoma
Description: as §1

[4] = test system: HT29 (colorectal adenocarcinoma); test: In vitro growth inhibition screen (sulphorhodamine B), HT29; assay type: cell-based, human; conditions: HT29 cells, incubated for 48 hours, sulphorhodamine B dye; read-out: GI50 (concentration which inhibits the cell growth by 50%), HT29 Colorectal adenocarcinoma
Description: as §1

[5] = test system: LOX (melanoma); test: In vitro growth inhibition screen (sulphorhodamine B), LOX; assay type: cell-based, human; conditions: LOX cells, incubated for 48 hours, sulphorhodamine B dye; read-out: GI50 (concentration which inhibits the cell growth by 50%), LOX Melanoma
Description: as §1

[6] = test system: MCF7 (breast adenocarcinoma); test: In vitro growth inhibition screen (sulphorhodamine B), MCF7; assay type: cell-based, human; conditions: MCF7 cells, incubated for 48 hours, sulphorhodamine B dye; read-out: GI50 (concentration which inhibits the cell growth by 50%), MCF7 Breast adenocarcinoma
Description: as §1

Structure (SMILES) | GI50 [1] [µM] | GI50 [2] [µM] | GI50 [3] [µM] | GI50 [4] [µM] | GI50 [5] [µM] | GI50 [6] [µM]
CCCN1C(=O)[C@H](O)[C@@H](O)[C@H](O)[C@H]1CNC(=O)Nc1ccc(C)cc1 [Compound No. 26, 6-N-{[p-Tolyl]aminocarbonylamino}-N-propyl-D-gluco-δ-lactam] | 235 | 520 | 278 | 209 | 116 | 136
CCCN1C(=O)[C@H](O)[C@@H](O)[C@H](O)[C@H]1CNC(=O)Nc1ccc(OC)cc1 [Compound No. 27, 6-N-{[p-Methoxyphenyl]aminocarbonylamino}-N-propyl-D-gluco-δ-lactam] | 481 | 323 | 413 | 232 | 193 | 214
CCCN1C(=O)[C@H](O)[C@@H](O)[C@H](O)[C@H]1CNC(=O)Nc1ccc(N)cc1 [Compound No. 28, 6-N-{[p-Aminophenyl]aminocarbonylamino}-N-propyl-D-gluco-δ-lactam] | 194 | 557 | 288 | 242 | 136 | 106
CCCN1C(=O)[C@H](O)[C@@H](O)[C@H](O)[C@H]1CNC(=O)Nc1ccc(F)cc1 [Compound No. 29, 6-N-{[4-Fluorophenyl]aminocarbonylamino}-N-propyl-D-gluco-δ-lactam] | 165 | 87 | 280 | 58.6 | 290 | 85.8
CCCN1C(=O)C(O)C(O)C(O)C1CNC(=O)NC(C)C [Compound No. 30, 6-N-{[Isopropyl]aminocarbonylamino}-N-propyl-D-gluco-δ-lactam] | 209 | 100 | 119 | 42.6 | 226 | 180
CCCN1C(=O)[C@H](O)[C@@H](O)[C@H](O)[C@H]1CNC(=O)Nc1ccc(C(F)(F)F)cc1 [Compound No. 31, 6-N-{[4-Trifluoromethylphenyl]aminocarbonylamino}-N-propyl-D-gluco-δ-lactam] | 131 | 82.2 | 113 | 79.5 | 132 | 139
CCCN1C(=O)[C@H](OC(C)=O)[C@@H](OC(C)=O)[C@H](OC(C)=O)[C@H]1CNC(=O)Nc1ccc(OC)cc1 [Compound No. 32, 2,3,4-Tri-O-acetyl-6-N-{[4-methoxyphenyl]aminocarbonylamino}-N-propyl-D-gluco-δ-lactam] | 94.4 | 62 | 55.3 | 37.7 | 87.4 | 74.8
CCCN1C(=O)[C@H](OC(C)=O)[C@@H](OC(C)=O)[C@H](OC(C)=O)[C@H]1CNC(=O)Nc1ccccc1 [Compound No. 33, 2,3,4-Tri-O-acetyl-6-N-{[phenyl]aminocarbonylamino}-N-propyl-D-gluco-δ-lactam] | 56.8 | 47.1 | 52.7 | 24.1 | 25.1 | 34.1
CCCN1C(=O)C(OC(C)=O)C(OC(C)=O)C(OC(C)=O)C1CNC(=O)Nc1ccc(F)cc1 [Compound No. 34, 2,3,4-Tri-O-acetyl-6-N-{[4-fluorophenyl]aminocarbonylamino}-N-propyl-D-gluco-δ-lactam] | 63.4 | 28.3 | 78.2 | 38.4 | 130 | 26.1
CCCN1C(=O)[C@H](O[Si](C)(C)C)[C@@H](O[Si](C)(C)C)[C@H](O[Si](C)(C)C)[C@H]1CNC(=O)Nc1ccccc1 [Compound No. 35, 2,3,4-Tri-O-trimethylsilyl-6-N-{[phenyl]aminocarbonylamino}-N-propyl-D-gluco-δ-lactam] | 9.3 | 5.8 | 14 | 19.4 | 8 | 7.6
